Test results as given in patent US7384733B1, “Interface patch clamping” (Xention Discovery Limited, priority 1998, dated 2008).

Target: potassium currents (Kv1.1) in MK1 cell (Mus musculus, UniProt P16388)
Settings: TEA 5 mM in extracellular solution in the dish, then washing; FIG. 21
Excerpt: The solution may be exchanged readily by perfusion of the dish and this allows multiple drug additions and dose response curves to be obtained while recording from the one cell.
The holding potential was −60 mV and (a) and (b) show outward potassium currents (Kv1.1) in response to a voltage step to +30 mV.

Sequence of potassium currents (Kv1.1) in MK1 cell (P16388 whole entry): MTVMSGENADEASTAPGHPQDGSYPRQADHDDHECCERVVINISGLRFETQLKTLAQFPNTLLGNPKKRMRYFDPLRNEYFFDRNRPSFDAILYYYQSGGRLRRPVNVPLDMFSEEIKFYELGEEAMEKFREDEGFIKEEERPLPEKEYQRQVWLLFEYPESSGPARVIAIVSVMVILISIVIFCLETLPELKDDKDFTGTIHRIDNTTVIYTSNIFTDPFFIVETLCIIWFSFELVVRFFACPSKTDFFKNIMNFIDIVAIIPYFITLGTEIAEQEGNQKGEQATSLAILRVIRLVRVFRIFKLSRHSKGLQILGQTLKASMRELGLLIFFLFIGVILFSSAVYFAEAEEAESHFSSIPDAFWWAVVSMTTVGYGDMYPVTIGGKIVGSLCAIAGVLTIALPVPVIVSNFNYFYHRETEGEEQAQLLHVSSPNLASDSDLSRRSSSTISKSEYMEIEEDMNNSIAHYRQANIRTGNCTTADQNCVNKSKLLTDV

CC[N+](CC)(CC)CC [TEA, tetraethylammonium]
effect on the potassium current recorded from MK1 cell in whole cell recording mode: blocking effect of TEA was reversed by washing
